assay: Liquid dish neat product liquid-air partition coefficient; assay type: physicochemical; conditions: not given

Compound	Log of liquid dish neat product liquid-air partition coefficient (Comment Code K/L)
CCCCCCCCCCCCCO [Material 1090]	K (Log of liquid dish neat product liquid-air partition coefficient greater than or equal to −7)
CC1=C2CCC(C)C2CC(C(C)(C)O)CC1 (stereo not drawn) [Material 920]	K (Log of liquid dish neat product liquid-air partition coefficient greater than or equal to −7)
O=C1CCCC=CCCCCCCCCCC1 [Material 788]	K (Log of liquid dish neat product liquid-air partition coefficient greater than or equal to −7)
CCCCOC(=O)C(C)OC(=O)CCC (stereo not drawn) [Material 595]	K (Log of liquid dish neat product liquid-air partition coefficient greater than or equal to −7)
CC(C)=CCCC(C)=C1CC=C(C)CC1 [Material 608]	K (Log of liquid dish neat product liquid-air partition coefficient greater than or equal to −7)
CCCCCC(=O)Oc1ccc(C)cc1 [Material 939]	K (Log of liquid dish neat product liquid-air partition coefficient greater than or equal to −7)
CC(C)c1ccc2ncccc2c1 [Material 778]	K (Log of liquid dish neat product liquid-air partition coefficient greater than or equal to −7)
OCCc1ccccc1 [Material 955]	K (Log of liquid dish neat product liquid-air partition coefficient greater than or equal to −7)
CCCCC/C=C/C=C\C(=O)OCC [Material 942]	K (Log of liquid dish neat product liquid-air partition coefficient greater than or equal to −7)
C=CCCC(=O)C1=CCCC2(CCCC2)C1 [Material 1038]	K (Log of liquid dish neat product liquid-air partition coefficient greater than or equal to −7)
CCCC(=O)OCCc1ccccc1 [Material 831]	K (Log of liquid dish neat product liquid-air partition coefficient greater than or equal to −7)
CC1C(C)(C)C2=C(C(=O)CCC2)C1(C)C (stereo not drawn) [Material 572]	K (Log of liquid dish neat product liquid-air partition coefficient greater than or equal to −7)
C=C(C)C1CCC(C)(OC(C)=O)CC1 (stereo not drawn) [Material 611]	K (Log of liquid dish neat product liquid-air partition coefficient greater than or equal to −7)

same assay, conditions: class code letter within Comment Code

Compound	Log of liquid dish neat product liquid-air partition coefficient (Comment Code K/L)
CC(=O)[C@@]1(C)CC2=C(CCCC2(C)C)C[C@@H]1C [Material 215]	K (Log of liquid dish neat product liquid-air partition coefficient greater than or equal to −7)
C=CC1(C)CCC(C(C)(C)O)CC1C(=C)C (stereo not drawn) [Material 414]	K (Log of liquid dish neat product liquid-air partition coefficient greater than or equal to −7)
CC=Cc1ccc(OC)c(OC)c1 [Material 108]	K (Log of liquid dish neat product liquid-air partition coefficient greater than or equal to −7)
C=C1CCCC(C)(C)C1C(=O)C=CC (stereo not drawn) [Material 331]	K (Log of liquid dish neat product liquid-air partition coefficient greater than or equal to −7)
CCCCCCCCC1CCC(=O)O1 (stereo not drawn) [Material 330]	K (Log of liquid dish neat product liquid-air partition coefficient greater than or equal to −7)
CC1=CCC(C=CC(C)C(C)O)C1(C)C (stereo not drawn) [Material 416]	K (Log of liquid dish neat product liquid-air partition coefficient greater than or equal to −7)
CC(C)=C1CCC(C)(O)CC1 (stereo not drawn) [Material 318]	K (Log of liquid dish neat product liquid-air partition coefficient greater than or equal to −7)
C=CC(=C)CCCC(C)(C)O [Material 34]	K (Log of liquid dish neat product liquid-air partition coefficient greater than or equal to −7)
CC(C)=CCCC(C)=CC1OCC(C)O1 (stereo not drawn) [Material 519]	K (Log of liquid dish neat product liquid-air partition coefficient greater than or equal to −7)
CCCCCCCCCC(C)C(OC)OC (stereo not drawn) [Material 101]	K (Log of liquid dish neat product liquid-air partition coefficient greater than or equal to −7)
O=C1CCC=CCCCCCCCCCC1 [Material 372]	K (Log of liquid dish neat product liquid-air partition coefficient greater than or equal to −7)
COC(OC)C(C)c1ccccc1 (stereo not drawn) [Material 256]	K (Log of liquid dish neat product liquid-air partition coefficient greater than or equal to −7)
C=C(C)C1CCC(C)C(OC(C)=O)C1 (stereo not drawn) [Material 444]	K (Log of liquid dish neat product liquid-air partition coefficient greater than or equal to −7)
CC1(C)CCCC2=C1CC(C=O)CC2 (stereo not drawn) [Material 486]	K (Log of liquid dish neat product liquid-air partition coefficient greater than or equal to −7)
CC(C)C(=O)OC1CC2CCC1(C)C2(C)C (stereo not drawn) [Material 229]	K (Log of liquid dish neat product liquid-air partition coefficient greater than or equal to −7)
CC(C)C1OC2(CCCC2)OCC1(C)C (stereo not drawn) [Material 25]	K (Log of liquid dish neat product liquid-air partition coefficient greater than or equal to −7)
CC1(C)CCc2ccc(CCC=O)cc21 [Material 260]	K (Log of liquid dish neat product liquid-air partition coefficient greater than or equal to −7)
CCCCCCCCCCOC(=O)CC [Material 471]	K (Log of liquid dish neat product liquid-air partition coefficient greater than or equal to −7)
CC(O)C(C)/C=C1\C[C@H]2C[C@@H]1[C@@H]1C=CC[C@H]21 (stereo partly drawn) [Material 359]	K (Log of liquid dish neat product liquid-air partition coefficient greater than or equal to −7)
C=C1[C@H]2CC[C@H](CO)[C@@]23CC[C@H](C3)C1(C)C [Material 183]	K (Log of liquid dish neat product liquid-air partition coefficient greater than or equal to −7)
CCC(=O)OC1CC2C3C=CCC3C1C2(C)C (stereo not drawn) [Material 343]	K (Log of liquid dish neat product liquid-air partition coefficient greater than or equal to −7)
CCCCCCCCOC(=O)c1ccco1 [Material 28]	K (Log of liquid dish neat product liquid-air partition coefficient greater than or equal to −7)

same assay, conditions: code letters K, L

Compound	Comment Code: Log of liquid dish neat product liquid-air partition coefficient
CC(=O)OC(C)c1ccccc1 (stereo not drawn) [Material 1041]	K (Log of liquid dish neat product liquid-air partition coefficient greater than or equal to −7)
CC(=O)[C@@]1(C)CC2=C(CCCC2(C)C)C[C@@H]1C [Material 215]	K (Log of liquid dish neat product liquid-air partition coefficient greater than or equal to −7)
COc1ccccc1C=CC=O [Material 26]	K (Log of liquid dish neat product liquid-air partition coefficient greater than or equal to −7)
C=C[C@](C)(O)CCC=C(C)C [Material 888]	K (Log of liquid dish neat product liquid-air partition coefficient greater than or equal to −7)
O=C1CCCC=CCCCCCCCCCC1 [Material 788]	K (Log of liquid dish neat product liquid-air partition coefficient greater than or equal to −7)
CC(C)CC(=O)OCc1ccccc1 [Material 645]	K (Log of liquid dish neat product liquid-air partition coefficient greater than or equal to −7)
CC=CC(=O)C1C(C)=CCCC1(C)C (stereo not drawn) [Material 880]	K (Log of liquid dish neat product liquid-air partition coefficient greater than or equal to −7)
Cc1ccc(C(C)C)cc1O [Material 575]	K (Log of liquid dish neat product liquid-air partition coefficient greater than or equal to −7)
CC=Cc1ccc(OCC)c(O)c1 [Material 1112]	K (Log of liquid dish neat product liquid-air partition coefficient greater than or equal to −7)
CC(C)C(=O)OC1CC2CCC1(C)C2(C)C (stereo not drawn) [Material 229]	K (Log of liquid dish neat product liquid-air partition coefficient greater than or equal to −7)
C=CCCC(=O)C1=CCCC2(CCCC2)C1 [Material 1038]	K (Log of liquid dish neat product liquid-air partition coefficient greater than or equal to −7)
CC12CCCC(C)(CC1)C2=NO [Material 921]	K (Log of liquid dish neat product liquid-air partition coefficient greater than or equal to −7)
CC1(C)CCc2ccc(CCC=O)cc21 [Material 260]	K (Log of liquid dish neat product liquid-air partition coefficient greater than or equal to −7)
CC(O)C(C)/C=C1\C[C@H]2C[C@@H]1[C@@H]1C=CC[C@H]21 (stereo partly drawn) [Material 359]	K (Log of liquid dish neat product liquid-air partition coefficient greater than or equal to −7)
CCC(C)(O)/C=C/C=C(C)C (stereo not drawn) [Material 81]	K (Log of liquid dish neat product liquid-air partition coefficient greater than or equal to −7)
C=CCOC(=O)COc1ccccc1 [Material 743]	K (Log of liquid dish neat product liquid-air partition coefficient greater than or equal to −7)
C=C1[C@H]2CC[C@H](CO)[C@@]23CC[C@H](C3)C1(C)C [Material 183]	K (Log of liquid dish neat product liquid-air partition coefficient greater than or equal to −7)
CCC(=O)OC1CC2C3C=CCC3C1C2(C)C (stereo not drawn) [Material 343]	K (Log of liquid dish neat product liquid-air partition coefficient greater than or equal to −7)
COc1cc(C)ccc1O [Material 492]	K (Log of liquid dish neat product liquid-air partition coefficient greater than or equal to −7)

— patent publication US20160090556A1, “PRODUCTS COMPRISING MALODOR REDUCTION MATERIALS” (The Procter & Gamble Company, priority 2014, published 2016)
